Experimental data taken from the supplement of paper PMC10307832.

Legend:
Assay in all cases: relative viability (nuclei count vs DMSO), 5 days (fraction); higher = more cells survive
[1] = compound: CCc1cnn2c(NCc3ccc[n+]([O-])c3)cc(N3CCCC[C@H]3CCO)nc12 [Dinaciclib] + Cc1nc(NC(=O)N2CCC[C@H]2C(N)=O)sc1-c1ccnc(C(C)(C)C(F)(F)F)c1 [Alpelisib] (partner 2 µM)
Method in brief: (§1)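 The day after seeding in 1536-well plates, lung cancer cell lines were treated by pin tool with a single drug, or with a fixed anchor-drug dose together with five library-drug doses (not always all listed) in √10 steps. After 5 days, a combined fix-and-stain solution (final 0.05% Triton X-100, 1% formaldehyde, 1 ug/ml Hoechst) was added. Nuclei counted on 4× images gave relative viability as treated counts over vehicle counts, reported as the median of duplicate plates.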

[2] = compound: CCc1cnn2c(NCc3ccc[n+]([O-])c3)cc(N3CCCC[C@H]3CCO)nc12 [Dinaciclib] + COc1cc2c(Oc3ccc(NC(=O)C4(C(=O)Nc5ccc(F)cc5)CC4)cc3F)ccnc2cc1OCCCN1CCOCC1 [Foretinib] (partner 0.25 µM)
Method in brief: as §1

[3] = compound: CCc1cnn2c(NCc3ccc[n+]([O-])c3)cc(N3CCCC[C@H]3CCO)nc12 [Dinaciclib] + C[C@@H](Oc1cc(-c2cnn(C3CCNCC3)c2)cnc1N)c1c(Cl)ccc(F)c1Cl [Crizotinib] (partner 1 µM)
Method in brief: as §1

[4] = compound: CCc1cnn2c(NCc3ccc[n+]([O-])c3)cc(N3CCCC[C@H]3CCO)nc12 [Dinaciclib] + COc1cccc2cc(-c3nc([C@H]4CC[C@H](C(=O)O)CC4)n4ncnc(N)c34)[nH]c12 [OSI-027] (partner 0.5 µM)
Method in brief: as §1

[5] = compound: CCc1cnn2c(NCc3ccc[n+]([O-])c3)cc(N3CCCC[C@H]3CCO)nc12 [Dinaciclib] + N=C(N)NC(=N)NCCc1ccccc1 [Phenformin] (partner 250 µM)
Method in brief: as §1

Cell Line | relative viability ([1]; first compound 0.009487 µM) | relative viability ([1]; first compound 0.03 µM) | relative viability ([1]; first compound 0.09487 µM) | relative viability ([1]; first compound 0.3 µM) | relative viability ([2]; first compound 0.009487 µM) | relative viability ([2]; first compound 0.03 µM) | relative viability ([2]; first compound 0.09487 µM) | relative viability ([2]; first compound 0.3 µM) | relative viability ([3]; first compound 0.009487 µM) | relative viability ([3]; first compound 0.03 µM) | relative viability ([3]; first compound 0.09487 µM) | relative viability ([3]; first compound 0.3 µM) | relative viability ([4]; first compound 0.009487 µM) | relative viability ([4]; first compound 0.03 µM) | relative viability ([4]; first compound 0.09487 µM) | relative viability ([4]; first compound 0.3 µM) | relative viability ([5]; first compound 0.009487 µM) | relative viability ([5]; first compound 0.03 µM) | relative viability ([5]; first compound 0.09487 µM) | relative viability ([5]; first compound 0.3 µM)
NCI-H1651 | 0.865 | 0.613 | 0.108 | 0.0602 | 0.858 | 0.683 | 0.0694 | 0.0598 | 0.941 | 0.685 | 0.188 | 0.0849 | 0.694 | 0.53 | 0.163 | 0.0729 | 0.26 | 0.219 | 0.0746 | 0.0547
NCI-H1666 | 0.716 | 0.165 | 0.228 | 0.243 | 0.832 | 0.318 | 0.38 | 0.328 | 0.742 | 0.194 | 0.202 | 0.271 | 0.857 | 0.484 | 0.375 | 0.346 | 0.461 | 0.34 | 0.4 | 0.347
NCI-H1734 | 0.607 | 0.271 | 0.127 | 0.138 | 0.803 | 0.164 | 0.132 | 0.129 | 0.464 | 0.163 | 0.1 | 0.12 | 0.471 | 0.13 | 0.11 | 0.116 | 0.318 | 0.14 | 0.113 | 0.115
NCI-H1755 | 0.852 | 0.241 | 0.158 | 0.169 | 0.917 | 0.516 | 0.198 | 0.196 | 0.8 | 0.289 | 0.147 | 0.147 | 0.763 | 0.519 | 0.194 | 0.258 | 0.545 | 0.405 | 0.224 | 0.218
NCI-H1915 | 0.866 | 0.202 | 0.108 | 0.108 | 0.731 | 0.193 | 0.124 | 0.173 | 0.706 | 0.117 | 0.103 | 0.102 | 0.525 | 0.169 | 0.156 | 0.138 | 0.295 | 0.149 | 0.13 | 0.133
NCI-H1944 | 0.904 | 0.221 | 0.152 | 0.166 | 0.892 | 0.191 | 0.152 | 0.134 | 1.14 | 0.143 | 0.136 | 0.126 | 0.413 | 0.156 | 0.139 | 0.141 | 0.184 | 0.117 | 0.121 | 0.13
NCI-H1975 | 0.473 | 0.118 | 0.112 | 0.147 | 0.868 | 0.185 | 0.107 | 0.099 | 0.765 | 0.222 | 0.139 | 0.129 | 0.783 | 0.347 | 0.0912 | 0.0908 | 0.364 | 0.153 | 0.113 | 0.1
NCI-H1993 | 0.671 | 0.683 |  | 0.642 | 0.922 | 0.584 | 0.65 | 0.544 | 0.735 | 0.766 |  | 0.642 | 0.538 | 0.57 | 0.625 | 0.6 | 0.466 | 0.581 | 0.594 | 0.565
NCI-H2009 | 0.923 | 0.151 | 0.102 | 0.0919 | 1.3 | 0.144 | 0.103 | 0.0969 | 1.13 | 0.0796 | 0.0746 | 0.0749 | 0.528 | 0.0935 | 0.11 | 0.107 | 0.463 | 0.159 | 0.11 | 0.105
NCI-H2023 | 0.538 | 0.25 | 0.064 | 0.0614 | 0.948 | 0.0806 | 0.0663 | 0.0474 | 0.93 | 0.0702 | 0.05 | 0.0622 | 0.395 | 0.0919 | 0.052 | 0.067 | 0.384 | 0.0797 | 0.0696 | 0.0629
NCI-H2085 | 0.976 | 0.346 | 0.228 | 0.258 | 1.16 | 0.259 | 0.194 | 0.241 | 1.02 | 0.313 | 0.208 | 0.236 | 0.748 | 0.264 | 0.243 | 0.196 | 0.72 | 0.304 | 0.232 | 0.202
NCI-H2087 | 0.843 | 0.144 | 0.121 | 0.116 | 0.93 | 0.118 | 0.0913 | 0.106 | 1.3 | 0.136 | 0.128 | 0.13 | 0.529 | 0.0975 | 0.11 | 0.0895 | 0.588 | 0.112 | 0.118 | 0.107
NCI-H2126 | 0.732 | 0.399 | 0.209 | 0.196 | 1.08 | 0.803 | 0.194 | 0.312 | 1.01 | 0.565 | 0.213 | 0.215 | 0.784 | 0.381 | 0.251 | 0.204 | 0.443 | 0.258 | 0.221 | 0.21
